Assay results published in article PMC11149917, “Translational and Therapeutic Evaluation of RAS-GTP Inhibition by RMC-6236 in RAS-Driven Cancers” (Cancer Discovery, 2024).

System: PRISM panel of 845 cancer cell lines
Experiment: PRISM assay
Type: cell-based, human
Method: The PRISM cell set comprised 845 cell lines representing more than 45 lineages (see Supplementary Table S1 for cell line information), which largely overlapped with the Cancer Cell Line Encyclopedia; https://portals.broadinstitute.org/ccle). Cell lines were grown in RPMI without phenol red and supplemented with 10% or 20% FBS for adherent and suspended lines, respectively. Parental cell lines were stably infected with a unique 24-nucleotide DNA barcode via lentiviral transduction and blasticidin selection. After selection, barcoded cell lines were expanded and subjected to quality control (Mycoplasma contamination test, an SNP test for confirming cell line identity, and barcode ID confirmation). Approved cell lines were then pooled (20–25 cell lines per pool) based on doubling time similarity and frozen in assay-ready vials.
RMC-6236 was added to 384-well plates at 8-point concentration with 3-fold dilutions in triplicate. These assay-ready plates were then seeded with the thawed cell line pools. Adherent cell pools were plated at 1,250 cells per well, whereas suspension and mixed adherent/suspension pools were plated at 2,000 cells per well. Treated cells were incubated for 5 days, and then lysed. Lysate plates were collapsed together prior to barcode amplification and detection.
Each cell line's unique barcode is located in the 3′UTR of the blasticidin-resistance gene and therefore is expressed as mRNA. Total mRNA was captured using magnetic particles that recognize polyA sequences. Captured mRNA was reverse-transcribed into cDNA and then the sequence containing the unique PRISM barcode was amplified using PCR. Finally, Luminex beads that recognize the specific barcode sequences in the cell set were hybridized to the PCR products and detected using a Luminex scanner which reports the signal as a median fluorescent intensity (MFI).
• Each detection well contained 10 control barcodes in increasing abundances as spike-in controls. For each plate, we first create a reference profile by calculating the median of the log2(MFI) values across negative control wells for each of these spiked-in barcodes. • For each well, a monotonic smooth p-spline was fitted to map the spike-in control levels to the reference profile. Next, we transform the log2(MFI) for each cell barcode using the fitted spline to allow well-to-well comparisons by correcting for amplification and detection artifacts. • Next, the separability between negative and positive control treatments was assessed. In particular, we calculated the error rate of the optimum simple threshold classifier between the control samples for each cell line and plate combination. The error rate is a measure of the overlap of the two control sets and was defined as error = (FP + FN)/n, where FP is false positives, FN is false negatives, and n is the total number of controls. A threshold was set between the distributions of positive and negative control log2(MFI) values (with everything below the threshold said to be positive and above said to be negative) such that this value is minimized. Additionally, we also calculated the dynamic range of each cell line. […] Additionally, any cell line that had less than 2 passing replicates was also omitted for the sake of reproducibility. Finally, we computed viability by normalizing with respect to the median negative control for each plate.
For every gene with nonsilent mutations in at least four cell lines, we compared the AUC values between cells with and without those mutations using a t test. This analysis was carried out for (i) the full data set; (ii) excluding cell lines with nonsilent KRAS mutations; and (iii) excluding cell lines that have either KRAS or NRAS nonsilent mutations.

CCn1c(-c2cc(N3CCN(C)CC3)cnc2[C@H](C)OC)c2c3cc(ccc31)-c1csc(n1)C[C@H](NC(=O)[C@H]1C[C@@H]1C)C(=O)N1CCC[C@H](N1)C(=O)OCC(C)(C)C2 [RMC-6236]
RMC-6236: RevMed PRISM: AUC (LS_AUTONOMIC_GANGLIA): 1 | RMC-6236: RevMed PRISM: AUC (MCAS_OVARY, KRAS p.G12D): 0.5822 | RMC-6236: RevMed PRISM: AUC (MDAMB361_BREAST): 0.8463 | RMC-6236: RevMed PRISM: AUC (MG63_BONE): 0.9083 | RMC-6236: RevMed PRISM: AUC (MIAPACA2_PANCREAS, KRAS p.G12C): 0.3158 | RMC-6236: RevMed PRISM: AUC (MKN1_STOMACH): 0.8375 | RMC-6236: RevMed PRISM: AUC (MMNK1_BILIARY_TRACT): 1 | RMC-6236: RevMed PRISM: AUC (MOLP2_HAEMATOPOIETIC_AND_LYMPHOID_TISSUE): 0.8941 | RMC-6236: RevMed PRISM: AUC (NCIH1373_LUNG, KRAS p.G12C): 0.5175 | RMC-6236: RevMed PRISM: AUC (NCIH1623_LUNG): 0.9336 | RMC-6236: RevMed PRISM: AUC (NCIH1792_LUNG, KRAS p.G12C): 0.4194 | RMC-6236: RevMed PRISM: AUC (NCIH1944_LUNG, KRAS p.G13D): 0.6749 | RMC-6236: RevMed PRISM: AUC (NCIH2110_LUNG): 0.7265 | RMC-6236: RevMed PRISM: AUC (NCIH2170_LUNG): 0.8266 | RMC-6236: RevMed PRISM: AUC (NOZ_LIVER, KRAS p.G12V): 0.4128 | RMC-6236: RevMed PRISM: AUC (NP3_CENTRAL_NERVOUS_SYSTEM): 0.8074 | RMC-6236: RevMed PRISM: AUC (NUGC4_STOMACH): 0.5513 | RMC-6236: RevMed PRISM: AUC (OE21_OESOPHAGUS): 0.7641 | RMC-6236: RevMed PRISM: AUC (OSRC2_KIDNEY): 0.9503 | RMC-6236: RevMed PRISM: AUC (OVKATE_OVARY): 0.9428 | RMC-6236: RevMed PRISM: AUC (PL21_HAEMATOPOIETIC_AND_LYMPHOID_TISSUE, KRAS p.A146V): 0.4905 | RMC-6236: RevMed PRISM: AUC (PSN1_PANCREAS, KRAS p.G12R): 0.3382 | RMC-6236: RevMed PRISM: AUC (RDES_BONE): 0.8941 | RMC-6236: RevMed PRISM: AUC (RERFLCKJ_LUNG): 0.8815 | RMC-6236: RevMed PRISM: AUC (RKN_SOFT_TISSUE, KRAS p.G12V): 0.3219 | RMC-6236: RevMed PRISM: AUC (RL_HAEMATOPOIETIC_AND_LYMPHOID_TISSUE): 0.8075 | RMC-6236: RevMed PRISM: AUC (SKES1_BONE): 0.8643 | RMC-6236: RevMed PRISM: AUC (SKGT2_STOMACH): 0.6916 | RMC-6236: RevMed PRISM: AUC (SKHEP1_LIVER): 0.8776 | RMC-6236: RevMed PRISM: AUC (SNU601_STOMACH, KRAS p.G12D): 0.4515 | RMC-6236: RevMed PRISM: AUC (SNU1076_UPPER_AERODIGESTIVE_TRACT): 0.4839 | RMC-6236: RevMed PRISM: AUC (SNU1079_BILIARY_TRACT): 0.8678 | RMC-6236: RevMed PRISM: AUC (SR786_HAEMATOPOIETIC_AND_LYMPHOID_TISSUE): 0.7042 | RMC-6236: RevMed PRISM: AUC (SUDHL4_HAEMATOPOIETIC_AND_LYMPHOID_TISSUE): 0.8448 | RMC-6236: RevMed PRISM: AUC (SUDHL8_HAEMATOPOIETIC_AND_LYMPHOID_TISSUE): 1 | RMC-6236: RevMed PRISM: AUC (SUIT2_PANCREAS, KRAS p.G12D): 0.6849 | RMC-6236: RevMed PRISM: AUC (SW626_LARGE_INTESTINE, KRAS p.G12V): 0.3255 | RMC-6236: RevMed PRISM: AUC (SW1271_LUNG, NRAS p.Q61R): 0.6986 | RMC-6236: RevMed PRISM: AUC (TC106_BONE): 0.7285 | RMC-6236: RevMed PRISM: AUC (TE8_OESOPHAGUS): 0.7048 | RMC-6236: RevMed PRISM: AUC (TT_THYROID): 1 | RMC-6236: RevMed PRISM: AUC (U2973_HAEMATOPOIETIC_AND_LYMPHOID_TISSUE): 1 | RMC-6236: RevMed PRISM: AUC (UMUC6_URINARY_TRACT): 0.4621 | RMC-6236: RevMed PRISM: AUC (UMUC10_URINARY_TRACT): 0.7756 | RMC-6236: RevMed PRISM: AUC (UMUC11_URINARY_TRACT): 0.952 | RMC-6236: RevMed PRISM: AUC (VAL_HAEMATOPOIETIC_AND_LYMPHOID_TISSUE): 0.8667 | RMC-6236: RevMed PRISM: AUC (YD10B_UPPER_AERODIGESTIVE_TRACT): 0.5303 | RMC-6236: RevMed PRISM: AUC (YD38_UPPER_AERODIGESTIVE_TRACT): 0.4476 | RMC-6236: RevMed PRISM: AUC ([…]02ER_ENDOMETRIUM): 0.8144 | Median AUC (PRISM) (mutant copy number gained KRAS): 0.54 | Median AUC (PRISM) (wild-type KRAS cell lines): 0.78 | Median AUC (PRISM) (wild-type copy number gained KRAS): 0.84
